From PubChem BioAssay (NCI)
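Where inhibition never reached the appropriate level, the endpoint shown equals the highest concentration tested. Otherwise, values were interpolated linearly from a five-concentration, 48-hour dose response in 96-well plates. GI50: concentration for 50% inhibition of growth. TGI denotes the concentration required for complete inhibition of growth.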

Tests used:
Experiment in all cases: NCI anticancer screen, dose series, 48 h
NCI-H226 lung = tested on: NCI-H226 lung
SNB-75 CNS = tested on: SNB-75 CNS
SK-MEL-2 melanoma = tested on: SK-MEL-2 melanoma
SN12C renal = tested on: SN12C renal
U251 CNS = tested on: U251 CNS
SF-268 CNS = tested on: SF-268 CNS
NCI-H522 lung = tested on: NCI-H522 lung
K-562 leukemia = tested on: K-562 leukemia
SNB-19 CNS = tested on: SNB-19 CNS
UO-31 renal = tested on: UO-31 renal

SMILES	GI50 (NCI-H226 lung) [µM]	TGI (NCI-H226 lung) [µM]	GI50 (SNB-75 CNS) [µM]	TGI (SNB-75 CNS) [µM]	GI50 (SK-MEL-2 melanoma) [µM]	TGI (SK-MEL-2 melanoma) [µM]	GI50 (SN12C renal) [µM]	TGI (SN12C renal) [µM]	GI50 (U251 CNS) [µM]	TGI (U251 CNS) [µM]	GI50 (SF-268 CNS) [µM]	TGI (SF-268 CNS) [µM]	GI50 (NCI-H522 lung) [µM]	TGI (NCI-H522 lung) [µM]	GI50 (K-562 leukemia) [µM]	TGI (K-562 leukemia) [µM]	GI50 (SNB-19 CNS) [µM]	TGI (SNB-19 CNS) [µM]	GI50 (UO-31 renal) [µM]	TGI (UO-31 renal) [µM]
CC[O-].CC[O-].O=C1C(c2ccccc2)=C([O-])c2ccccc21.O=C1C(c2ccccc2)=C([O-])c2ccccc21.[Ti+4]	> 100	> 100	> 100	> 100	> 100	> 100	> 100	> 100	> 100	> 100	> 100	> 100	> 100	> 100	–	–	–	–	–	–
COc1cccc(-c2nc3sccn3c2-c2ccnc(NCCNS(=O)(=O)c3ccccc3)c2)c1	2.48	10.5	–	–	1.96	5.96	2.91	> 100	3.9	> 100	3.54	> 100	2.26	27.6	1.46	> 100	5.92	> 100	0.59	6.65
Cc1nc2cc(N)c(F)cc2[nH]1	–	> 100	–	–	–	> 100	–	> 100	–	> 100	–	> 100	–	> 100	–	> 100	–	> 100	–	> 100
O=C([CH-]C(=O)c1ccccc1)c1ccccc1.O=C([CH-]C(=O)c1ccccc1)c1ccccc1.O=C([CH-]C(=O)c1ccccc1)c1ccccc1.[OH3+].[Y+3]	–	–	3.25	8.1	4.24	17.9	4.68	26.7	2.93	24.2	4.8	31	2.58	11.1	3.6	17.8	8.04	56.4	4.51	14.7
CN1CCCCCC(=N\O)/C(=N/O)CCCCC1	–	> 100	–	> 100	–	–	–	> 100	–	> 100	–	> 100	–	> 100	–	> 100	–	> 100	–	> 100
COc1ccc(-c2ccc(/C=N/n3c(COc4ccc(Cl)cc4Cl)nn(CN4CCN(C)CC4)c3=S)o2)c([N+](=O)[O-])c1	12.5	31	67.5	> 100	–	–	17.8	41.5	16.9	42.8	24.8	> 100	44.5	> 100	22.2	> 100	35.2	> 100	26.7	> 100
Cc1ccc(/C=C/C(=O)c2sc(-c3cccnc3)nc2C)cc1	–	> 100	–	–	–	> 100	–	> 100	–	> 100	–	–	–	> 100	–	> 100	–	–	–	> 100
NC(=S)N/N=C(\C(=O)Nc1cccc([N+](=O)[O-])c1)c1nc2ccc([N+](=O)[O-])cc2[nH]c1=O	–	> 100	–	> 100	–	> 100	–	–	–	> 100	–	> 100	–	53	–	> 100	–	> 100	–	> 100
CCCN1CCN(c2ccc3nc(-c4ccc5nc(-c6cc(OC)ccc6OC)[nH]c5c4)[nH]c3c2)CC1	20.2	46	12.8	26.2	19.7	37.2	16.3	32.8	1.69	3.1	18.6	43	1.74	3.68	–	–	–	–	14.6	29.3
O=C([O][Hg][CH2]C1COCC([CH2][Hg][O]C(=O)c2ccccc2)O1)c1ccccc1 (stereo unspecified)	20.8	41.9	15.6	29.3	13.2	29.6	7.68	32.2	0.622	2.12	16.6	30.7	–	–	2.61	11.9	19.2	40	1.82	3.39
COC(=O)C12CC3CC(C1)CC(C(=O)OC)(C3)C2	–	–	–	> 100	–	–	–	> 100	–	> 100	–	> 100	–	> 100	–	–	–	> 100	–	> 100
O=C1c2ccccc2C2(O)NC(=S)N(c3ccccc3)C12O (stereo unspecified)	–	–	–	> 100	–	> 100	–	–	–	> 100	–	> 100	–	> 100	–	> 100	–	> 100	–	> 100
COc1ccc(C2=C(c3ccc(OC)c(OC)c3)C(=O)OC2)cc1	0.0169	2.92	–	–	–	> 100	0.123	> 82.1	< 0.01	> 59.6	0.106	> 91.7	< 0.0406	–	< 0.01	–	0.263	> 100	0.116	> 85.9
Cc1cccc(Cl)c1NC(=O)/C=C/c1ccccc1	–	> 100	–	87.1	–	> 100	–	> 100	–	> 100	–	> 100	–	> 100	–	> 100	–	> 100	–	–
COc1cc(C(=O)C/C(CCC(=O)Nc2ccc(Cl)cc2C)=N/NC(=O)C(N)=O)ccc1O	–	> 100	–	–	–	> 100	–	> 100	–	> 100	–	> 100	–	> 100	–	> 100	–	> 100	–	> 100
CC(=O)Nc1c(C)ccc2c1C(=O)c1ccccc1C2=O	–	> 100	–	> 100	–	> 100	–	> 100	–	> 100	–	> 100	–	> 100	–	> 100	–	–	–	> 100
O=CN1N=C(c2ccc(Cl)cc2)CC1c1cccc(Nc2ccnc3cc(Cl)ccc23)c1 (stereo unspecified)	1.87	57.7	1.7	> 100	–	–	3.99	> 100	2.47	13.6	2.73	> 100	1.12	11.9	0.388	10.2	4.19	> 100	1.7	> 100
